The nature of data set [1]: Antioxidant activity assessed as ferric ion reducing activity at 20 to 320 umol after 20 mins by FRAP assay. It counts as functional.
Data set [2] deals with MCF7. Kind of data set: Antiproliferative activity against human MCF7 cells after 72 hrs by MTT assay. Format: functional, cell-based. The note with it: MCF7, 72 h.
The test system of another data set is HEK293. Kind of data set: Antiproliferative activity against human HEK293 cells after 72 hrs by MTT assay. The note with it: HEK293, 72 h. It counts as cell-based.
The nature of data set [3]: Antiproliferative activity against HSF cells after 72 hrs by MTT assay. It counts as cell-based. As to conditions: Homo sapiens. On the technique in general: Tetrazolium assays rely on reduction of a dye to a coloured formazan, in cell work by metabolically active cells.
The test system of data set [4] is PC-3. Kind of data set: Antiproliferative activity against human PC3 cells after 72 hrs by MTT assay. Format: functional, cell-based. As to conditions: PC-3, 72 h.
Data set [5] deals with A498. Description: Antiproliferative activity against human A498 cells after 72 hrs by MTT assay. It counts as functional, cell-based. As to conditions: A498, 72 h.
Data set [6] relates to SNB-19. Kind of data set: Antiproliferative activity against human SNB19 cells after 72 hrs by MTT assay. It counts as functional, cell-based. The note with it: SNB-19, 72 h.
Data set [7] deals with M14. Description: Antiproliferative activity against human M14 cells after 72 hrs by MTT assay. Format: functional, cell-based. The note with it: M14, 72 h.
Data set [8] has as its system OVCAR-4. Kind of data set: Antiproliferative activity against human OVCAR4 cells after 72 hrs by MTT assay. It counts as functional, cell-based. As to conditions: OVCAR-4, 72 h.
For data set [9], the system named is NCI-H322M. Description: Antiproliferative activity against human NCI-H322M cells after 72 hrs by MTT assay. It counts as functional, cell-based.
The test system of data set [10] is HCT-15. Kind of data set: Antiproliferative activity against human HCT15 cells after 72 hrs by MTT assay. As to conditions: HCT-15, 72 h. It counts as functional, cell-based.
Data set [11] deals with HCT-116. Description: Antiproliferative activity against human HCT116 cells after 72 hrs by MTT assay. Format: functional, cell-based. As to conditions: HCT-116, 72 h.
The subject of data set [12] is MDA-MB-231. Kind of data set: Antiproliferative activity against human MDA-MB-231 cells after 72 hrs by MTT assay. Format: functional, cell-based. As to conditions: MDA-MB-231, 72 h.
Data set [13] can be described thus: Selectivity index, ratio of IC50 for HSF cells to IC50 for human MCF7 cells. It counts as toxicity. As to conditions: HSF cells versus MCF7 cells, read-out: Ratio IC50.
The nature of data set [14]: Ratio of compound IC50 to dehydrozingerone IC50 for antiproliferative activity against HSF cells. It counts as cell-based. The note with it: human, read-out: Ratio IC50.
Data set [15] deals with MCF7. Kind of data set: Potency index, ratio of compound IC50 to dehydrozingerone IC50 for antiproliferative activity against human MCF7 cells. It counts as functional.
Data set [16] has as its system PC-3. Kind of data set: Potency index, ratio of compound IC50 to dehydrozingerone IC50 for antiproliferative activity against human PC3 cells. It counts as functional.
Data set [17] has as its system A498. Description: Potency index, ratio of compound IC50 to dehydrozingerone IC50 for antiproliferative activity against human A498 cells. Format: functional.
Data set [18] deals with SNB-19. Description: Potency index, ratio of compound IC50 to dehydrozingerone IC50 for antiproliferative activity against human SNB19 cells. It counts as functional.
Data set [19] has as its system M14. Kind of data set: Potency index, ratio of compound IC50 to dehydrozingerone IC50 for antiproliferative activity against human M14 cells. It counts as functional.
The test system of data set [20] is OVCAR-4. Kind of data set: Potency index, ratio of compound IC50 to dehydrozingerone IC50 for antiproliferative activity against human OVCAR4 cells. It counts as functional.
The test system of data set [21] is NCI-H322M. Kind of data set: Potency index, ratio of compound IC50 to dehydrozingerone IC50 for antiproliferative activity against human NCI-H322M cells. It counts as functional.
Data set [22] has as its system HCT-15. Description: Potency index, ratio of compound IC50 to dehydrozingerone IC50 for antiproliferative activity against human HCT15 cells. It counts as functional.
Data set [23] concerns HCT-116. Kind of data set: Potency index, ratio of compound IC50 to dehydrozingerone IC50 for antiproliferative activity against human HCT116 cells. It counts as functional.
Data set [24] has as its system MDA-MB-231. Description: Potency index, ratio of compound IC50 to dehydrozingerone IC50 for antiproliferative activity against human MDA-MB-231 cells. It counts as functional.

This note sets out measurements from ChEMBL document CHEMBL4261654, “Synthesis and in vitro antitumor activity of novel alkenyl derivatives of pyridoxine, bioisosteric analogs of feruloyl methane” (Bioorg Med Chem, 2018).

Activity calls are given as the source filed them. The calls are words filed in the database; no cut-off is given here.

With `O=c1c(O)c(-c2ccc(O)c(O)c2)oc2cc(O)cc(O)c12`, in data set [1], the outcome was Active.
`CCCC1OCc2c(/C=C/C(C)=O)cnc(C)c2O1` (centres undefined): the concentration for half-maximal inhibition (IC50) (as a rule, the concentration that gives 50% inhibition) stood at 2.2 µM in the data set on MCF7 [2] and 2.9 µM in the data set on HEK293.
With `CCC1OCc2c(/C=C/C(C)=O)cnc(C)c2O1` (centres undefined), the half-inhibitory concentration (IC50) with MCF7 [2] was 3.9 µM; with HEK293, 36 µM; in data set [3], 18.9 µM; in the data set with PC-3 [4], 8.8 µM; in the data set with A498 [5], 17 µM; in the data set with SNB-19 [6] it was 6.7 µM. In addition, the IC50 came out at 9.7 µM with M14 [7]; 23.6 µM in the data set with OVCAR-4 [8]; 10.6 µM with NCI-H322M [9]; 2.1 µM in the data set with HCT-15 [10]; 4.1 µM in the data set on HCT-116 [11]; 3.1 µM in the data set with MDA-MB-231 [12]. In addition, the selectivity ratio in data set [13] was 4.8; in data set [14], 7 to 211. The “Ratio IC50” value with MCF7 [15], with PC-3 [16], in the data set on A498 [17], in the data set with SNB-19 [18], with M14 [19] and in the data set with OVCAR-4 [20] was 7 - 211 throughout. Moreover, the “Ratio IC50” value with NCI-H322M [21], in the data set with HCT-15 [22], in the data set with HCT-116 [23] and in the data set with MDA-MB-231 [24] was 7 - 211 each time. Besides, the outcome in data set [1] was inactive.
As for `O=C1O[C@H]([C@@H](O)CO)C(O)=C1O`, the outcome in data set [1] was Active.
